Reference: US5869602A, “Peptide derivatives” (Novo Nordisk A/S, priority 1995, dated 1999)
Non-standard residues stand in square brackets, D forms with d. Residues, ends and D or L forms follow the SMILES beside them. *: point of attachment. Myristoyl = CCCCCCCCCCCCCC(=O)*; Nle = CCCC[C@H](N)C(=O)O; For = O=C*

Columns and labels:
[1] = Determination of lipophilicity relative to human insulin (k'rel) by RP-HPLC; format: physicochemical; details: pH 7.3
Experimental: The lipophilicity of peptides and peptide derivatives relative to human insulin, k'rel, was measured on a LiChrosorb RP18 (5 μm, 4×250 mm) HPLC column by isocratic elution at 40° C. using mixtures of A) 0.1M sodium phosphate buffer, pH 7.3, containing 10% acetonitrile, and B) 50% acetonitrile in water as eluents. The elution was monitored by following the UV absorption of the eluate at 214 nm. Void time, t0, was found by injecting 0.1 mM sodium nitrate. Retention time for human insulin. tinsulin, was adjusted to at least 2t0 by varying the ratio between the A and B solutions. k'rel =(tderivate -t0)/(tinsulin -t0).

[2] = test system: rabbits; experiment: Blood glucose in rabbits pre-treated with Insulin Actrapid, after SC injection; format: in vivo
Experimental: The resulting solution was sterilized by filtration and transferred to a vial.
Blood was sampled at times: -60, 0, 15, 30, 60, 120, 180 and 240 min, and the glucose concentration determined by the hexokinase method.

[3] = LiChrosorb RP18 HPLC, isocratic elution, 40° C.

CCCCCCCCCCCCCC(=O)NCCCC[C@H](NC(=O)[C@H](Cc1ccc(O)cc1)NC(=O)[C@H](CCCC)NC(=O)[C@H](Cc1ccccc1)NC(=O)[C@H](CC(C)C)NC(=O)[C@H](CCCC)NC=O)C(=O)O [Example 1, For-Nle-Leu-Phe-Nle-Tyr-Lys(N^ε -tetradecanoyl)-OH] (For-[Nle]LF[Nle]YK(Myristoyl)-OH)
lipophilicity relative to human insulin, k'rel [1, 3]: 8.2×10^3

CCCCCCCCCCCCCC(=O)NCCCC[C@H](NC(=O)[C@H](Cc1ccc(O)cc1)NC(=O)[C@@H](NC(=O)[C@H](Cc1ccccc1)NC(=O)[C@H](Cc1ccccc1)NC(=O)[C@H](Cc1c[nH]cn1)NC(=O)[C@H](Cc1ccccc1)NC(=O)[C@@H]1CCCN1C(=O)[C@H](Cc1c[nH]cn1)NC(=O)[C@@H]1CCCN1)C(C)C)C(=O)O [Example 3] (H-PHPFHFFVYK(Myristoyl)-OH)
lipophilicity relative to human insulin, k'rel [1, 3]: 5.3×10^3

CCCC[C@H](NC=O)C(=O)N[C@@H](CC(C)C)C(=O)N[C@@H](Cc1ccccc1)C(=O)N[C@@H](CCCC)C(=O)N[C@@H](Cc1ccc(O)cc1)C(=O)N[C@@H](CCCCN)C(=O)O [For-Nle-Leu-Phe-Nle-Tyr-Lys-OH] (HELM PEPTIDE1{[O=C[*:2]].[Nle].L.F.[Nle].Y.K}$$$$V2.0)
lipophilicity relative to human insulin, k'rel [1]: 2.3

CC(C)C[C@H](NC(=O)[C@H](Cc1ccccc1)NC(=O)CNC(=O)[C@@H](C)NC(=O)[C@@H](N)Cc1ccc(O)cc1)C(=O)N[C@@H](CCCCN)C(=O)O [H-Tyr-D-Ala-Gly-Phe-Leu-Lys-OH] (HELM PEPTIDE1{Y.[dA].G.F.L.K}$$$$V2.0)
lipophilicity relative to human insulin, k'rel [1, 3]: 3.0×10^-3

H-PHPFHFFVYK-OH
lipophilicity relative to human insulin, k'rel [1, 3]: 2.3×10^2

Lys^30 (Nε-decanoyl) glucagon [Example 6]
blood glucose concentration ([2]; 0 min (time of SC injection of test substance)): 51 mg glucose/100 ml | blood glucose concentration ([2]; 15 min after SC injection): 79 mg glucose/100 ml | blood glucose concentration ([2]; 30 min after SC injection): 93 mg glucose/100 ml | blood glucose concentration ([2]; 60 min after SC injection): 114 mg glucose/100 ml | blood glucose concentration ([2]; 120 min after SC injection): 112 mg glucose/100 ml | blood glucose concentration ([2]; 180 min after SC injection): 116 mg glucose/100 ml | blood glucose concentration ([2]; 240 min after SC injection): 110 mg glucose/100 ml | blood glucose concentration ([2]; -60 min (time of 2 IU Insulin Actrapid, before test substance)): 94 mg glucose/100 ml | blood glucose raising effect compared with glucagon ([2]; SC, conclusion from the table): prolonged action
